In US7030138B2, “Benzamidine derivatives” (Sankyo Company, Limited, priority 2001, dated 2006):
Where a name gives a salt, the structure may show the parent alone.

Key:
[1] = molecular target: T1, human factor-Xa (Homo sapiens, UniProt P00742); assay: Determination of anti-factor Xa activity (S-2222 coloring substrate, absorbance at 405 nm); assay type: biochemical; conditions: human factor-Xa 0.25 unit/ml, S-2222 0.4 mM, Tris buffer pH 8.4, room temperature, 5 minutes; read-out: Inhibitory Action against Factor Xa Activity (IC50 (nM))
T1 construct: purchased Cosmobio Co., Ltd
Experimental: Determination of Anti-factor Xa Activity
Anti-factor Xa activity was determined according to methods described by Hara et al. [Thrombo. Haemost., 71, 314 (1994)], which were slightly modified. S-2222, a coloring substrate (0.4 mM, Daiichi Pure Chemicals Co., Ltd.) and the test compounds were mixed in Tris hydrochloride buffered solution (50 mM, pH: 8.4) containing NaCl (0.9%). To this solution, human factor-Xa (0.25 unit/ml, Cosmobio Co., Ltd.) was added and the reaction was started. In the control group, distilled water was added to the Tris-buffered solution instead of the test compound. The reaction mixture (in total: 0.1 ml) was incubated at room temperature for 5 minutes. Optical absorbance of the reaction mixture was continuously determined at 405 nm with a 96-well microplate reader (Model 550, Biorad) and increase in the absorbance for 5 minutes was calculated as an indicator of factor Xa activity. To assess anti-factor Xa activities of the test compounds, concentrations of the test compounds to inhibit the factor Xa activity by 50% (IC50) were calculated.

[2] = molecular target: T2, bovine trypsin (Bos taurus, UniProt P00760); assay: Determination of anti-trypsin activity (S-2222 coloring substrate, absorbance at 405 nm); assay type: biochemical; conditions: bovine trypsin 0.25 μg-protein/ml, S-2222 0.4 mM, Tris buffer pH 8.4, room temperature, 5 minutes; read-out: Inhibitory Action against Trypsin Activity (IC50 (nM))
T2 construct: purchased Sigma
T2 sequence (P00760 24-246): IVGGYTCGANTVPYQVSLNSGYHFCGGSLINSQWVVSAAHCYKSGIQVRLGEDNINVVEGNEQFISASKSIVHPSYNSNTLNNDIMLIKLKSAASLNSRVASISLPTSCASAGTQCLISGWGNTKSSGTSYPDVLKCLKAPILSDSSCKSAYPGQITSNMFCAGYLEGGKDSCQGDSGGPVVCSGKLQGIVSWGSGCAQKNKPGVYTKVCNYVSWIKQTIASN
Experimental: Determination of Anti-trypsin Activity
Anti-trypsin activity was determined according to methods described by Taniuchi et al. [Thromb. Haemost., 79, 543 (1998)], which were partially modified. S-2222, a coloring substrate (5 μl, final concentration: 0.4 mM, Daiichi Pure Chemicals Co., Ltd.) and the test compound (5 μl) were mixed with Tris hydrochloride buffered solution (50 mM, 85 μl, pH: 8.4) containing NaCl (0.9%). To this solution, bovine trypsin (5 μl, final concentration: 0.25 μg-protein/ml, Sigma) was added and the reaction was started. In the control group, distilled water was added to the Tris-buffered solution instead of the test compound. The reaction mixture (in total: 0.1 ml) was incubated at room temperature. Optical absorbance was continuously determined at 405 nm with a 96-well microplate reader (Model 550, Biorad) and increase in the absorbance for 5 minutes was calculated as an indicator of trypsin activity. To assess anti-trypsin activities of the test compounds, concentrations of the test compounds to inhibit the trypsin activity by 50% (IC50) were calculated.

T1 sequence (P00742 235-488 limits assumed): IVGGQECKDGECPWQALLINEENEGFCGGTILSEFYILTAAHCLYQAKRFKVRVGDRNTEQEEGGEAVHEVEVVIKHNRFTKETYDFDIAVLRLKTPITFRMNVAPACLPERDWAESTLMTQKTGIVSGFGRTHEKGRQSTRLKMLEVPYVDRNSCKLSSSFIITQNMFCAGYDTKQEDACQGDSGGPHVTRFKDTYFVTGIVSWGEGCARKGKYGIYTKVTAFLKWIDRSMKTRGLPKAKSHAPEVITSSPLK
T1 sequence (P00742 41-179 partner limits assumed): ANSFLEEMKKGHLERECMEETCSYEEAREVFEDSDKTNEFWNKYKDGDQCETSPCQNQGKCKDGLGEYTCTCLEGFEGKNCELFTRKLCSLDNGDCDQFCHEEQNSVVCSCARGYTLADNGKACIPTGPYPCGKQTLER

| SMILES | IC50 [1] [nM] | IC50 [2] [nM] |
| --- | --- | --- |
| N=C(N)c1cccc(/C=C/CN(c2ccc(OC3CCN(C4=NCCCC4)CC3)c(C(F)(F)F)c2)S(=O)(=O)CC(=O)O)c1 [Example 80, N-[3-(3-Amidinophenyl)-2-(E)-propenyl]-N-[4-[1-(2,3,4,5-tetrahydropyridin-6-yl)piperidin-4-yloxy]-3-trifluoromethylphenyl]sulfamoylacetic acid dihydrochloride] | 11 |  |
| CCOC(=O)CS(=O)(=O)N(C/C=C/c1cccc(C(=N)N)c1)c1ccc(OC2CCN(C3=NCCC3)CC2)c(C)c1 [Example 65, Ethyl N-[3-(3-amidinophenyl)-2-(E)-propenyl]-N-[4-[1-(4,5-dihydro-3H-pyrrol-2-yl)piperidin-4-yloxy]-3-methylphenyl]sulfamoylacetate dihydrochloride] | 12 | 2300 |
| N=C(N)c1cccc(/C=C/CN(c2ccc(OC3CCN(Cc4ccccc4)CC3)c(Cl)c2)S(=O)(=O)CC(=O)O)c1 [Example 10, N-[3-(3-Amidinophenyl)-2-(E)-propenyl]-N-[4-(1-benzylpiperidin-4-yloxy)-3-chlorophenyl]sulfamoylacetic acid dihydrochloride] | 15 |  |
| CCOC(=O)CS(=O)(=O)N(C/C=C/c1cccc(C(=N)N)c1)c1ccc(OC2CCN(C3=NCCSC3)CC2)c(Cl)c1 [Example 83, Ethyl N-[3-(3-amidinophenyl)-2-(E)-propenyl]-N-[3-chloro-4-[1-(5,6-dihydro-2H-[1,4]thiazin-3-yl)piperidin-4-yloxy]phenyl]sulfamoylacetate dihydrochloride] | 13 |  |
| N=C(N)c1cccc(/C=C/CN(c2ccc(OC3CCN(C4=NCCC4)CC3)c(C(F)(F)F)c2)S(=O)(=O)CC(=O)O)c1 [Example 78, N-[3-(3-Amidinophenyl)-2-(E)-propenyl]-N-[4-[1-(4,5-dihydro-3H-pyrrol-2-yl)piperidin-4-yloxy]-3-trifluoromethylphenyl]sulfamoylacetic acid dihydrochloride] | 11 | 5300 |
| CCN1CCC(Oc2ccc(N(C/C=C/c3cccc(C(=N)N)c3)S(=O)(=O)CC(=O)O)cc2Cl)CC1 [Example 4, N-[3-(3-Amidinophenyl)-2-(E)-propenyl]-N-[3-chloro-4-(1-ethylpiperidin-4-yloxy)phenyl]sulfamoylacetic acid dihydrochloride] | 10 |  |
| CCOC(=O)CS(=O)(=O)N(C/C=C/c1cccc(C(=N)N)c1)c1ccc(OC2CCN(C(=N)CC)CC2)c(Cl)c1 [Example 49, Ethyl N-[3-(3-amidinophenyl)-2-(E)-propenyl]-N-[3-chloro-4-[1-(1-iminopropyl)piperidin-4-yloxy]phenyl-1 sulfamoylacetatedihydrochloride] | 6.8 | 860 |
| CCOC(=O)CS(=O)(=O)N(C/C=C/c1cccc(C(=N)N)c1)c1ccc(OC2CCN(C)CC2)c(C(F)(F)F)c1 [Example 45, Ethyl N-[3-(3-amidinophenyl)-2-(E)-propenyl]-N-[4-(1-methylpiperidin-4-yloxy)-3-trifluoromethylphenyl]sulfamoylacetate dihydrochloride] | 7.9 |  |
| CC/N=C/N1CCC(Oc2ccc(N(C/C=C/c3cccc(C(=N)N)c3)S(=O)(=O)CC(=O)O)cc2Cl)CC1 [Example 87, N-[3-(3-Amidinophenyl)-2-(E)-propenyl]-N-[3-chloro-4-[1-(N-ethylformimidoyl)piperidin-4-yloxy]phenyl]sulfamoylacetic acid dihydrochloride] | 13 | 3500 |
| N=C(N)c1cccc(/C=C/CN(c2ccc(OC3CCN(CCc4ccccn4)CC3)c(Cl)c2)S(=O)(=O)CC(=O)O)c1 [Example 36, N-[3-(3-Amidinophenyl)-2-(E)-propenyl]-N-[3-chloro-4-[1-[2-(2-pyridyl)ethyl]piperidin-4-yloxy]phenyl]sulfamoylacetic acid trihydrochloride] | 13 |  |
| CCOC(=O)CS(=O)(=O)N(C/C=C/c1cccc(C(=N)N)c1)c1ccc(OC2CCN(C3=NCCCC3)CC2)c(C)c1 [Example 67, Ethyl N-[3-(3-amidinophenyl)-2-(E)-propenyl]-N-[3-methyl-4-[1-(2,3,4,5-tetrahydropyridin-6-yl)piperidin-4-yloxy]phenyl]sulfamoylacetate dihydrochloride] | 15 |  |
| CCC(=N)N1CCC(Oc2ccc(N(C/C=C/c3cccc(C(=N)N)c3)S(=O)(=O)CC(=O)O)cc2Cl)CC1 [Example 50, N-[3-(3-Amidinophenyl)-2-(E)-propenyl]-N-[3-chloro-4-[1-(1-iminopropyl)piperidin-4-yloxy]phenyl]sulfamoylacetic acid dihydrochloride] | 6.3 | 1200 |
| N=C(N)c1cccc(/C=C/CN(c2ccc(OC3CCN4CCCC4C3)c(Cl)c2)S(=O)(=O)CC(=O)O)c1 (stereo not shown) [Example 42, dihydrochloride] | 11 | 7300 |
| N=C(N)c1cccc(/C=C/CN(c2ccc(OC3CCN(C4=NCCCC4)CC3)c(Cl)c2)S(=O)(=O)CC(=O)O)c1 [Example 56, N-[3-(3-Amidinophenyl)-2-(E)-propenyl]-N-[3-chloro-4-[1-(2,3,4,5-tetrahydropyridin-6-yl)piperidin-4-yloxy]phenyl]sulfamoylacetic acid dihydrochloride] | 10 |  |
| CCOC(=O)CS(=O)(=O)N(C/C=C/c1cccc(C(=N)N)c1)c1ccc(OC2CCN(C3=NCCCC3)CC2)c(C(F)(F)F)c1 [Example 79, Ethyl N-[3-(3-amidinophenyl)-2-(E)-propenyl]-N-[4-[1-(2,3,4,5-tetrahydropyridin-6-yl)piperidin-4-yloxy]-3-trifluoromethylphenyl]sulfamoylacetate dihydrochloride] | 15 |  |
| Cc1cc(N(C/C=C/c2cccc(C(=N)N)c2)S(=O)(=O)CC(=O)O)ccc1OC1CCN(C2=NCCCC2)CC1 [Example 68, N-[3-(3-Amidinophenyl)-2-(E)-propenyl]-N-[3-methyl-4-(2,3,4,5-tetrahydropyridin-6-yl)piperidin-4-yloxy]phenyl]sulfamoylacetic acid dihydrochloride] | 15 |  |
| CCOC(=O)CS(=O)(=O)N(C/C=C/c1cccc(C(=N)N)c1)c1ccc(OC2CCN(C(=N)c3ccccc3)CC2)c(Cl)c1 [Example 51, Ethyl N-[3-(3-amidinophenyl)-2-(E)-propenyl]-N-[4-(1-iminophenylmethylpiperidin-4-yloxy)-3-chlorophenyl]sulfamoylacetate dihydrochloride] | 6.9 |  |
| CN1CCC(Oc2ccc(N(C/C=C/c3cccc(C(=N)N)c3)S(=O)(=O)CC(=O)O)cc2C(F)(F)F)CC1 [Example 46, N-[3-(3-Amidinophenyl)-2-(E)-propenyl]-N-[4–1-methylpiperidin-4-yloxy)-3-trifluoromethylphenyl]sulfamoylacetic acid dihydrochloride] | 11 |  |
| CCN=CN1CCC(Oc2ccc(N(CC=Cc3cccc(C(=N)N)c3)S(=O)(=O)CC(=O)OCC)cc2Cl)CC1 [Example 86, Ethyl N-[3-(3-amidinophenyl)-2-(E)-propenyl]-N-[3-chloro-4-[1-(N-ethylformimidoyl)piperidin-4-yloxy]phenyl]sulfamoylacetate dihydrochloride] | 15 |  |
| N=C(N)c1cccc(/C=C/CN(c2ccc(OC3CCN(CCc4ccccc4)CC3)c(Cl)c2)S(=O)(=O)CC(=O)O)c1 [Example 12, N-[3-(3-Amidinophenyl)-2-(E)-propenyl]-N-[3-chloro-4-(1-phenethylpiperidin-4-yloxy)phenyl]sulfamoylacetic acid dihydrochloride] | 13 |  |
| N=C(N)c1cccc(/C=C/CN(c2ccc(OC3CCN(C4CCCC4)CC3)c(Cl)c2)S(=O)(=O)CC(=O)O)c1 [Example 38, N-[3-(3-Amidinophenyl)-2-(E)-propenyl]-N-[3-chloro-4-(1-cyclopentylpiperidin-4-yloxy)phenyl]sulfamoylacetic acid dihydrochloride] | 12 |  |
| N=C(N)c1cccc(/C=C/CN(c2ccc(OC3CCN(C(=N)c4ccccc4)CC3)c(Cl)c2)S(=O)(=O)CC(=O)O)c1 [Example 52, N-[3-(3-Amidinophenyl)-2-(E)-propenyl]-N-[4-(1-iminophenylmethylpiperidin-4-yloxy)-3-chlorophenyl]sulfamoylacetic acid dihydrochloride] | 7.8 |  |
